Here are results for two molecules from patent US20050058611A1, “Preventing and/or combating collagen fiber degradation induced under conditions of natural exposure to sunlight” (L'OREAL, priority 2003, published 2005).

The subject of assay [1] is production of MMP-1 by normal human epidermal keratinocytes. Kind of assay: MMP-1 production by normal human epidermal keratinocytes cultured on plastic, ELISA. It is filed as cell-based. The note with it: TPA 20 ng/ml, positive control; cell culture supernatant 24 hours after treatment. As for the experimental part:
FIG. 5 illustrates the production of MMP-1 by normal human epidermal keratinocytes. The cells cultured on plastic are exposed to SSR or treated with TPA (20 ng/ml). The MMP-1 content is evaluated by ELISA 24 hours after treatment in the cell culture supernatant.
Human keratinocytes are isolated from normal human skin (breast surgery) and cultured on a nourishing layer of mitomycin-treated 3T3 mouse fibroblasts.
The MMP-1 content is measured by ELISA (Biotrak kit RPN 2610, Amersham Biotech, France) according to the supplier's instructions.
To determine whether the irradiation of SSR type could also modulate the production of MMP-1 by keratinocytes growing on plastic, the cells were exposed to an SSR radiation. The MMP-1 extracellular contents were quantified 24 hours after UV radiation.
(In general: ELISA stands for enzyme-linked immunosorbent assay.)

The test system of assay [2] is production of MMP-1 by normal human fibroblasts. In words: Keratinocyte conditioned medium transferred onto fibroblasts; MMP-1 production by ELISA. Format: cell-based. The note with it: for Production of MMP-1: sodium butyrate 3 mM, fibroblast culture supernatant 24 hours after transfer. From the text:
Normal human keratinocytes cultured as a monolayer on plastic were subjected to a UV-B radiation (10 mJ/cm^2). The experiment may also be performed in the presence of an SSR as defined in Example 1.
A Philips TL 20 W/12 tube equipped with a Kodacel filter to remove the wavelengths below 290 nm is used as UV-B source.
Just before irradiation, the culture medium of the sub-confluent cells (80-90% of confluence) is replaced with a PBS phosphate buffer to avoid the generation of phototoxic products by the medium. Under these conditions, no loss of viability of the cells is observed at the UV doses used.
After irradiation, the cells were placed in contact with an MEM culture medium free of serum and of growth factor, which are known to interfere with the detection or production of MMP-1, containing or not containing sodium butyrate NaBu (3 mM).
The conditioned medium of the keratinocytes (irradiated or not, in the presence or absence of sodium butyrate) was taken up 24 hours after irradiation and placed in contact with normal human fibroblasts.
The production of MMP-1 detected 24 hours later in the fibroblast culture supernatant was quantified by means of the “Biotrak MMP-1 human ELISA system” detection kit sold by Amersham, according to the supplier's indications.
The results are read using a LabSystems microplate reader equipped with a 450 nm filter.
The amount of MMP-1 is calculated relative to a calibration range prepared with a standard supplied with the kit, and is expressed in ng/ml.

Consider `CCCCCCCCCCCCCC(=O)O[C@@H]1[C@@H](C)[C@@]2(O)[C@@H](C=C(CO)C[C@]3(O)C(=O)C(C)=C[C@@H]23)[C@H]2C(C)(C)[C@]12OC(C)=O` [TPA], for which the “MMP-1 production by keratinocytes” value in assay [1] is “leads to an accumulation of MMP-1 production”.
Turning to `CCCC(=O)[O-].[Na+]` [sodium butyrate], in assay [2] (UV-B irradiated keratinocyte conditioned medium), the “Effect on the photoinduced stimulation of MMP-1 production” value is on record as “capable of preventing this stimulatory effect on MMP-1 production”. Further, the “Production of MMP-1” value in assay [2] (irradiated (UV-B 10 mJ/cm^2) keratinocyte conditioned medium) came to 16.97 ± 3.7 ng/mL; in assay [2] (non-irradiated keratinocyte conditioned medium) it was 4.84 ± 0.36 ng/mL. Also, the “Inhibition of basal production of MMP-1 (factor)” value in assay [2] (non-irradiated condition, versus control conditioned medium) worked out at 3.
